For orientation: IC50 means the midpoint of a concentration-inhibition curve.

Results on twelve compounds are retold here after US9555038B2, “Heterocycle-substituted tetracyclic compounds and methods of use thereof for the treatment of viral diseases” (Merck Sharp & Dohme Corp., priority 2013, dated 2017).

Assay [1] deals with HCV replicon 1AQ30D. Kind of assay: Cell-based HCV Replicon Assay B, replicon 1AQ30D. The procedure, abridged:
(§1)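 EC50 defined as the drug concentration giving a CT increase of 1 above projected baseline, from real-time RT-PCR of replicon RNA using genotype-specific primers and probes. Cells were seeded in 5% FBS, dosed after 24 h and incubated 3 days before lysis.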

Assay [2] concerns HCV replicon 1AY93H. Kind of assay: Cell-based HCV Replicon Assay A, replicon 1AY93H. The gist of the method: (§2)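 Readout: replicon RNA by real-time RT-PCR, normalised to co-amplified cyclophilin and quantified against replicon total-RNA standard curves. Cells (2000/well) treated 3 days in medium with 5% FBS and 0.5% DMSO, compound in 10 serial dilutions from starting concentrations of 333.3 nM to 1.667 nM.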

For assay [3], the system named is HCV replicon 2B. Kind of assay: Cell-based HCV Replicon Assay A, replicon 2B. The procedure, abridged: as §2
For assay [4], the system named is HCV replicon 1B. Kind of assay: Cell-based HCV Replicon Assay B, replicon 1B. The procedure, abridged: as §1
For orientation: In antiviral work, replicon cells carry a viral genome segment that copies itself.

Assay [5] deals with HCV replicon 1A. Kind of assay: Cell-based HCV Replicon Assay A, replicon 1A. The gist of the method: as §2
Where [6] appears, read: replicon 1AQ30D, read-out: 1A Q30D IC50.
[7] abbreviates: replicon 1AY93H, read-out: 1A Y93H IC50.
Setting [8] is: Hepatitis C virus, read-out: 1A Q30D IC50 (nM), replicon 1AQ30D.
Setting [9] is: read-out: 1A Y93H IC50, replicon 1AY93H.
Where [10] appears, read: Hepatitis C virus, read-out: 1A Y93H IC50 (nM), replicon 1AY93H.
[11] abbreviates: read-out: 1A Q30D IC50, replicon 1AQ30D.
[12] abbreviates: Hepatitis C virus, read-out: 2B IC50 (nM), replicon 2B.

Where two headings read alike, the source gives them in different places.

As for `COC(=O)N[C@H](C(=O)N1CCC[C@H]1c1ncc(-c2cc(F)c3c(c2)OC(c2cnc(C4CC4)s2)n2c-3cc3cc(-c4cnc([C@@H]5CC6(C)CC6N5C(=O)[C@@H](NC(=O)OC)C(C)C)[nH]4)ccc32)[nH]1)C(C)C` (single isomer, unassigned) [Compound 519], the half-inhibitory concentration (IC50) in assay [1] (setting [6]) was 0.951 nM; in assay [2] (setting [7]) it was 0.669 nM; in assay [3] (replicon 2B, read-out: 2B IC50), 0.598 nM; in assay [4], 2.1 pM; in assay [5] it was 3.1 pM.
For the compound `COC(=O)N[C@H](C(=O)N1CCC[C@H]1c1ncc(-c2cc(F)c3c(c2)OC(c2cnc(CC(C)(C)C)s2)n2c-3cc3cc(-c4cnc([C@@H]5CCCN5C(=O)[C@@H](NC(=O)OC)C(C)C)[nH]4)ccc32)[nH]1)C(C)C` (single isomer, unassigned) [Compound 522], the IC50 in assay [1] (setting [6]) was 0.163 nM; in assay [2] (setting [7]) it was 0.011 nM; in assay [3] (replicon 2B, read-out: 2B IC50), 0.015 nM; in assay [4] it was 1 pM; in assay [5] it was 1.4 pM.
For the compound `COC(=O)N[C@H](C(=O)N1CCC[C@H]1c1ncc(-c2cc(F)c3c(c2)OC(c2cnc(C4CCOCC4)s2)n2c-3cc3cc(-c4cnc([C@@H]5CCCN5C(=O)[C@@H](NC(=O)OC)C(C)C)[nH]4)ccc32)[nH]1)C(C)C` (single isomer, unassigned) [Compound 531], the IC50 in assay [1] (setting [8]) is 0.328 nM; in assay [2] (setting [9]) it was 0.022 nM; in assay [3] (read-out: 2B IC50, replicon 2B), 0.056 nM; in assay [4] (Hepatitis C virus) it was 3.8 pM; in assay [5] (Hepatitis C virus) it was 2.5 pM.
In the case of `COC(=O)N[C@H](C(=O)N1CCC[C@H]1c1ncc(-c2cc(F)c3c(c2)OC(c2cnc(Nc4ccc(F)cc4)s2)n2c-3cc3cc(-c4cnc([C@@H]5CCCN5C(=O)[C@@H](NC(=O)OC)C(C)C)[nH]4)ccc32)[nH]1)C(C)C` (single isomer, unassigned) [Compound 534], the IC50 in assay [1] (setting [8]) was 0.267 nM; in assay [2] (setting [10]), 0.094 nM; in assay [3] (read-out: 2B IC50, replicon 2B) it was 0.03 nM; in assay [4] (Hepatitis C virus) it was 3 pM; in assay [5] (Hepatitis C virus), 2.4 pM.
Regarding `COC(=O)N[C@H](C(=O)N1CCC[C@H]1c1ncc(-c2cc(F)c3c(c2)OC(c2cnc(Nc4ccc(F)cc4)s2)n2c-3cc3cc(-c4cnc([C@@H]5CCCN5C(=O)[C@@H](NC(=O)OC)C(C)C)[nH]4)ccc32)[nH]1)C(C)C` (single isomer, unassigned) [Compound 535], the IC50 was 0.172 nM in assay [1] (setting [11]); 0.084 nM in assay [2] (setting [9]); 0.012 nM in assay [3] (read-out: 2B IC50, replicon 2B); 3.2 pM in assay [4]; 3.1 pM in assay [5].
In the case of `COC(=O)NC(C(=O)N1CCC[C@H]1c1ncc(-c2ccc3c(c2)cc2n3C(c3cnc(CC(C)C)s3)Oc3cc(-c4cnc([C@@H]5CCCN5C(=O)[C@@H](NC(=O)OC)C(C)C)[nH]4)cc(F)c3-2)[nH]1)C1CCOC(C)(C)C1` (single isomer, unassigned) [Compound 544], the half-maximal inhibitory concentration (IC50) in assay [1] (setting [11]) came out at 0.051 nM; in assay [2] (setting [9]) it was 0.005 nM; in assay [3] (read-out: 2B IC50, replicon 2B) it was 0.006 nM; in assay [4] (Hepatitis C virus) it was 3.6 pM; in assay [5], 3.1 pM.
As to `COC(=O)NC(C(=O)N1CCC[C@H]1c1ncc(-c2ccc3c(c2)cc2n3C(c3cnc(CC(C)C)s3)Oc3cc(-c4cnc([C@@H]5CCCN5C(=O)[C@@H](NC(=O)OC)C(C)C)[nH]4)cc(F)c3-2)[nH]1)C1CCOC(C)(C)C1` (single isomer, unassigned) [Compound 545], the IC50 in assay [1] (setting [11]) came out at 0.015 nM; in assay [2] (setting [9]) it was 0.004 nM; in assay [3] (read-out: 2B IC50, replicon 2B) it was 0.006 nM; in assay [4] it was 2.8 pM; in assay [5], 2.6 pM.
For `COC(=O)NC(C(=O)N1CCC[C@H]1c1ncc(-c2ccc3c(c2)cc2n3C(c3cnc(CC(C)C)s3)Oc3cc(-c4cnc([C@@H]5CCCN5C(=O)[C@@H](NC(=O)OC)C(C)C)[nH]4)cc(F)c3-2)[nH]1)C1C[C@@H](C)O[C@@H](C)C1` (single isomer, unassigned) [Compound 547], the concentration for half-maximal inhibition (IC50) in assay [1] (setting [8]) was 0.028 nM; in assay [2] (setting [9]) it was 0.005 nM; in assay [3] (read-out: 2B IC50, replicon 2B), 0.006 nM; in assay [4] (Hepatitis C virus) it was 1.8 pM; in assay [5], 2.8 pM.
For the compound `CCCc1ncc(C2Oc3cc(-c4cnc([C@@H]5CCCN5C(=O)[C@@H](NC(=O)OC)C(C)C)[nH]4)cc(F)c3-c3cc4cc(-c5cnc([C@@H]6CCCN6C(=O)[C@@H](NC(=O)OC)C(C)C)[nH]5)ccc4n32)s1` (stereo partly drawn) [Compound 15], the half-maximal inhibitory concentration (IC50) in assay [1] (setting [8]) stood at 0.118 nM; in assay [2] (setting [9]) it was 0.0059 nM; in assay [3] (read-out: 2B IC50, replicon 2B) it was 0.025 nM; in assay [4] it was 3 pM; in assay [5] (Hepatitis C virus) it was 2.9 pM.
As for `COC(=O)N[C@H](C(=O)N1CCC[C@H]1c1nc(-c2cc(F)c3c(c2)OC(c2cnc(-c4cnccn4)s2)n2c-3cc3cc(-c4cnc([C@@H]5CCCN5C(=O)[C@@H](NC(=O)OC)C(C)C)[nH]4)ccc32)c[nH]1)C(C)C` (stereo partly drawn) [Compound 424], the half-inhibitory concentration (IC50) in assay [1] (setting [8]) was 0.058 nM; in assay [2] (setting [10]), 0.0554 nM; in assay [3] (setting [12]), 0.003 nM; in assay [4] (Hepatitis C virus), 694 pM; in assay [5] (Hepatitis C virus), 1.9 pM.
The corresponding values for `COC(=O)NC(C(=O)N1CCC[C@H]1c1ncc(-c2ccc3c(c2)cc2n3C(c3cnc(CC(C)(C)C)s3)Oc3cc(-c4cnc([C@@H]5CCCN5C(=O)[C@@H](NC(=O)OC)C(C)C)[nH]4)cc(F)c3-2)[nH]1)C1CCOC(C)(C)C1` (stereo partly drawn) [Compound 443] are 0.028 nM, 0.008 nM, 0.006 nM, 3.1 pM and 3.1 pM.
Regarding `COC(=O)N[C@H](C(=O)N1CCC[C@H]1c1ncc(-c2cc(F)c3c(c2)OC(c2cnc(C4CCCCC4)s2)n2c-3cc3cc(-c4cnc([C@@H]5CCCN5C(=O)[C@@H](NC(=O)OC)C(C)C)[nH]4)ccc32)[nH]1)C(C)C` (stereo partly drawn) [Compound 527], the IC50 amounted to 0.065 nM in assay [1] (setting [8]); 0.005 nM in assay [2] (setting [9]); 0.014 nM in assay [3] (read-out: 2B IC50, replicon 2B); 2.9 pM in assay [4] (Hepatitis C virus); 2.4 pM in assay [5] (Hepatitis C virus).
